Results from publication PMC10977726 (PLOS ONE, 2024).
Where two headings read alike, the source gives them in different places. Where a SMILES comes first, the peptide text is derived from it. Bridges are numbered along the chain shown (N, C = ends).

Assays:
[1] = molecular target: T1, human IgG Fc (Homo sapiens, UniProt P01857); assay: SPR; format: binding
T1 construct: Biotin-SP-ChromPure Human IgG, Fc fragment; purchased Jackson Immunoresearch Labs Inc. 009060008

[2] = molecular target: T1, human IgG Fc; assay: Phage competition ELISA (synthetic DCP vs its own phage); format: binding; conditions: Table S12; synthetic DCP competing with its own phage for biotinylated human IgG Fc on neutravidin plate; absorbance 450 nm; averaged from at least three independent runs
[3] = molecular target: Ly6E-rat IgG Fc (UniProt P20761+Q16553); assay: SPR; set-up: species or system human; conditions: Table S17, first KD value, at least three independent runs, estimated values due to possible non-specific binding, read-out: KD against rat Fc-Ly6E
Chain of Ly6E-rat IgG Fc (Q16553+P20761 fused): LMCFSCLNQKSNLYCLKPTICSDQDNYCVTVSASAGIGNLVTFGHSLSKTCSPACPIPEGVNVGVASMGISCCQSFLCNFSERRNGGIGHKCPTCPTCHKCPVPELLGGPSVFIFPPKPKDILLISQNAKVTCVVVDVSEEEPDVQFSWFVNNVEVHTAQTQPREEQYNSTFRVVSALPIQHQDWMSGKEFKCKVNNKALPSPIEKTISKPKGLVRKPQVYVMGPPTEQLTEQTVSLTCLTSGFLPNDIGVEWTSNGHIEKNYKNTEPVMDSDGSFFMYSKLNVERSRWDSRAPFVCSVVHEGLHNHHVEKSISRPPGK
Experimental: (§1) SPR measurements were carried out on a Biacore S200 instrument (GE Healthcare) with PBS-T (PBS with 0.05% Tween 20, pH 7.4) as the assay buffer as described previously. For kinetic measurements, biotinylated protein was captured on three separate sensor channels of a Series S SA Sensor chip (GE Healthcare). The chip was then blocked with 0.1 mg/mL free biotin. A concentration series of the DCP were injected to the chip. Data were double-referenced by subtracting the signal from a control sensor channel (coated with biotin only) and the signal from a buffer injection. Binding data were fitted using the manufacturer’s software (1:1 or two state binding model for single-cycle kinetics or steady-state model for multi-cycle kinetics).

[4] = molecular target: T2, PDGF bb (Homo sapiens, UniProt P01127); assay: SPR; conditions: Table S16; SPR against PDGF bb; averaged from at least three independent runs; estimated KD values due to possible non-specific binding
T2 construct: purchased R&D Systems BT220-010/CF
T2 sequence (P01127 82-190 limits assumed): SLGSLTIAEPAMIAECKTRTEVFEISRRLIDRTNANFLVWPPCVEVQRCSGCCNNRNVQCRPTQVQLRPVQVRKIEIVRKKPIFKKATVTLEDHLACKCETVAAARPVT
Experimental: as §1

[5] = molecular target: T3, human serum albumin (Homo sapiens, UniProt P02768); assay: Phage competition ELISA with phage displaying Hs-CHR-3; format: binding; conditions: Fig 4H
T3 construct: purchased Rockland Immunochemicals, Inc. 009–0633
T3 sequence (P02768 25-609): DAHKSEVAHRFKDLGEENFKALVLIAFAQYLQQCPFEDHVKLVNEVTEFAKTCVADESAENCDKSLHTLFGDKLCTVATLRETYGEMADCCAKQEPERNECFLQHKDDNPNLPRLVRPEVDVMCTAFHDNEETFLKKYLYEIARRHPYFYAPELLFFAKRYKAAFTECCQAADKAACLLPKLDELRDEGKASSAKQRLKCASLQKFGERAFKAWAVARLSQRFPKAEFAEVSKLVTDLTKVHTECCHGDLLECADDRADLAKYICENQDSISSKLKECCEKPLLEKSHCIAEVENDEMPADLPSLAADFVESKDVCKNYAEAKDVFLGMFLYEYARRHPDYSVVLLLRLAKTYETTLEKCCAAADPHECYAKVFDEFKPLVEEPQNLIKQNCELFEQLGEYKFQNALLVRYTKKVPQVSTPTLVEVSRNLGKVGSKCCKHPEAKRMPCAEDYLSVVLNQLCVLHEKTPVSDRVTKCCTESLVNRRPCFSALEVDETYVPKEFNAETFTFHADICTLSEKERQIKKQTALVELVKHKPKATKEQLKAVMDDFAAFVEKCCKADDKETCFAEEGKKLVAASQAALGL
Experimental: To analyze the competitive binding to the target protein for the synthetic DCP and its phage counterpart displaying the same DCP, 384-well plates were coated with 2 μg/mL of neutravidin in PBS overnight at 4°C. The plates were blocked with PBS containing 0.5% BSA and incubated with biotinylated human IgG Fc or serum albumin for 20 min at room temperature. Serial diluted synthetic DCP was pre-incubated with phage for 30 min at room temperature then the mixture was added to the 384 well plates for 30 min at room temperature. The plates were washed and incubate with anti-M13 antibody (1:10,000, HRP conjugated, Creative Diagnostics, cat# CAB-655M) for 30 min at room temperature, followed by washing, development and quenching (1 M H3PO4). The absorbance at 450 nm was recorded to calculate the IC50 values.
To further map the binding epitopes of the Ig-DCPs on human IgG Fc, we developed a protein A-human IgG Fc competition ELISA. […] The findings imply Hs-CHR-1 and -3 bind to a similar epitope on human serum albumin, which partially overlap with the SA21 binding site (Fig 4I).

[6] = molecular target: T4, human VEGF-A (Homo sapiens, UniProt P15692); assay: SPR; format: binding
T4 construct: biotin-VEGF-A (8–109, Genentech)
T4 sequence (P15692 214-315): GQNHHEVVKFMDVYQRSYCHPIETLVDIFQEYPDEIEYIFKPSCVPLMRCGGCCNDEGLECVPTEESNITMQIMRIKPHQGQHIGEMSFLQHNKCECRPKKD

CC[C@H](C)[C@@H]1NC(=O)[C@H](C)NC(=O)[C@H](CO)NC(=O)[C@@H]2CSSC[C@@H]3NC(=O)[C@H](Cc4ccc(O)cc4)NC(=O)CNC(=O)[C@H](Cc4ccccc4)NC(=O)[C@H](CCC(N)=O)NC(=O)[C@H](CO)NC(=O)[C@H](CSSC[C@H](NC(=O)[C@H](CCC(=O)O)NC(=O)CNC(=O)[C@@H](N)C(C)C)C(=O)N[C@@H](C(C)C)C(=O)N[C@@H](CCCNC(=N)N)C(=O)NCC(=O)N[C@@H](CCCNC(=N)N)C(=O)N2)NC(=O)[C@H](CSSC[C@@H](C(=O)NCC(=O)O)NC(=O)[C@H](Cc2ccc(O)cc2)NC(=O)[C@H](CCCCN)NC(=O)[C@@H]2CCCN2C(=O)CNC(=O)[C@H](CCCCN)NC(=O)CNC3=O)NC(=O)[C@H](CO)NC1=O [Ig-AMP-2] (H-VGECVRGRCSAISCCSQFGYCGKGPKYCG-OH; disulfide 4-15, 9-21, 14-28)
KD ([1]; Table S12, SPR Biacore S200, PBS-T pH 7.4, biotinylated protein on SA chip, averaged from at least three independent runs, N.A. = no detectable binding, * estimated value due to possible non-specific binding): aggregation

CSCC[C@@H]1NC(=O)[C@H](Cc2ccc(O)cc2)NC(=O)[C@H](Cc2c[nH]c3ccccc23)NC(=O)[C@H](Cc2ccc(O)cc2)NC(=O)CNC(=O)[C@@H](NC(=O)CN)CSSC[C@@H]2NC(=O)CNC(=O)[C@H](C)NC(=O)[C@H](CC(C)C)NC(=O)[C@@H]3CSSC[C@@H](C(=O)NCC(=O)O)NC(=O)[C@H](CCC(=O)O)NC(=O)[C@@H]4CCCN4C(=O)[C@H](CCCCN)NC(=O)[C@@H]4CCCN4C(=O)[C@H](CCCNC(=N)N)NC(=O)[C@H](CSSC[C@H](NC(=O)[C@H](Cc4ccccc4)NC(=O)[C@H](Cc4c[nH]c5ccccc45)NC(=O)[C@H](CCC(N)=O)NC1=O)C(=O)N[C@@H](CCCCN)C(=O)N[C@@H](CCC(N)=O)C(=O)N[C@@H](CC(=O)O)C(=O)N[C@@H](CO)C(=O)N[C@@H](CC(=O)O)C(=O)N3)NC(=O)[C@H](C(C)C)NC2=O [Ig-EET-4]
IC50 [2]: 823 nM | Kd ([1]; Table S12, SPR Biacore S200, PBS-T pH 7.4, biotinylated protein on SA chip, averaged from at least three independent runs, N.A. = no detectable binding, * estimated value due to possible non-specific binding, read-out: KD): 948 nM

CC[C@H](C)[C@@H]1NC(=O)[C@H](C)NC(=O)[C@@H](NC(=O)CN)CSSC[C@@H]2NC(=O)CNC(=O)[C@H](C)NC(=O)[C@H](CC(C)C)NC(=O)[C@@H]3CSSC[C@@H](C(=O)NCC(=O)O)NC(=O)[C@H](Cc4ccccc4)NC(=O)CNC(=O)[C@H](CC(N)=O)NC(=O)[C@@H]4CCCN4C(=O)CNC(=O)[C@H](CSSC[C@H](NC(=O)[C@H](CCC(N)=O)NC(=O)[C@H](Cc4ccccc4)NC(=O)[C@H](CCSC)NC(=O)[C@H](Cc4c[nH]c5ccccc45)NC(=O)CNC(=O)[C@H](CCSC)NC(=O)[C@H](Cc4c[nH]cn4)NC(=O)[C@H](Cc4ccc(O)cc4)NC1=O)C(=O)N[C@@H](CCCCN)C(=O)N[C@@H](CCC(N)=O)C(=O)N[C@@H](CC(=O)O)C(=O)N[C@@H](CO)C(=O)N[C@@H](CC(=O)O)C(=O)N3)NC(=O)[C@H](C(C)C)NC2=O [L-EET-7]
Kd [3]: 22 nM

CC[C@H](C)[C@@H]1NC(=O)[C@H](Cc2ccccc2)NC(=O)[C@@H]2CCCN2C(=O)[C@H](CC(N)=O)NC(=O)[C@H](CC(=O)O)NC(=O)[C@H](CC(=O)O)NC(=O)[C@H](Cc2ccccc2)NC(=O)[C@@H](NC(=O)CN)CSSC[C@@H]2NC(=O)CNC(=O)[C@H](C)NC(=O)[C@H](CC(C)C)NC(=O)[C@@H]3CSSC[C@@H](C(=O)NCC(=O)O)NC(=O)[C@H](Cc4c[nH]c5ccccc45)NC(=O)[C@H]([C@@H](C)O)NC(=O)[C@H](CC(=O)O)NC(=O)[C@H](Cc4ccc(O)cc4)NC(=O)[C@H](Cc4c[nH]c5ccccc45)NC(=O)[C@H](CSSC[C@H](NC(=O)[C@H](C)NC1=O)C(=O)N[C@@H](CCCCN)C(=O)N[C@@H](CCC(N)=O)C(=O)N[C@@H](CC(=O)O)C(=O)N[C@@H](CO)C(=O)N[C@@H](CC(=O)O)C(=O)N3)NC(=O)[C@H](C(C)C)NC2=O [P-EET-6] (H-GCFDDNPFIACKQDSDCLAGCVCWYDTWCG-OH; disulfide 2-21, 11-23, 17-29)
Kd [4]: > 6700 nM

CC[C@H](C)[C@H](NC(=O)[C@H](CC(C)C)NC(=O)[C@@H](N)CCCNC(=N)N)C(=O)N[C@@H](CCC(=O)O)C(=O)N[C@@H](CC(=O)O)C(=O)N[C@H](C(=O)N[C@H]1CSSC[C@@H](C(=O)N[C@@H](CC(C)C)C(=O)N[C@@H](Cc2c[nH]c3ccccc23)C(=O)N[C@@H](CCC(=O)O)C(=O)N[C@@H](CC(=O)O)C(=O)N[C@@H](CC(=O)O)C(=O)O)NC(=O)CNC(=O)[C@H](Cc2c[nH]c3ccccc23)NC(=O)[C@H](CCCNC(=N)N)NC(=O)[C@@H]2CCCN2C(=O)[C@H](CC(C)C)NC1=O)[C@@H](C)CC [SA21] (H-RLIEDICLPRWGCLWEDD-OH; disulfide 7-13 (inferred); N-terminus and C-terminus assumed)
inhibition of interaction between biotinylated human serum albumin and phage displaying Hs-CHR-3 [5]: partially disrupted

CC[C@H](C)[C@@H]1NC(=O)[C@H](C(C)C)NC(=O)[C@H](Cc2c[nH]cn2)NC(=O)[C@H](Cc2ccc(O)cc2)NC(=O)[C@H](CCC(=O)O)NC(=O)[C@H](CCC(N)=O)NC(=O)[C@H](CC(=O)O)NC(=O)[C@H]([C@@H](C)O)NC(=O)[C@H](C)NC(=O)[C@H](Cc2c[nH]c3ccccc23)NC(=O)[C@H](C(C)C)NC(=O)[C@H](C)NC(=O)[C@H](CO)NC(=O)[C@@H]2CSSC[C@@H]3NC(=O)[C@H](CO)NC(=O)CNC(=O)[C@H]([C@@H](C)O)NC(=O)[C@H](CSSC[C@H](N)C(=O)N[C@@H](CCCCN)C(=O)NCC(=O)N[C@@H](CCCCN)C(=O)NCC(=O)N[C@@H](C)C(=O)N[C@@H](CCCCN)C(=O)N2)NC(=O)[C@H](CSSC[C@@H](C(=O)O)NC(=O)[C@H](CCCCN)NC(=O)CNC(=O)[C@H](CO)NC(=O)[C@H](CCCNC(=N)N)NC3=O)NC1=O [V-CON-1]
Kd [6]: > 4600 nM

CC[C@H](C)[C@@H]1NC(=O)[C@H]([C@@H](C)O)NC(=O)[C@H](Cc2ccccc2)NC(=O)[C@@H]2CCCN2C(=O)[C@H](Cc2ccccc2)NC(=O)[C@H](Cc2c[nH]c3ccccc23)NC(=O)[C@@H]2CCCN2C(=O)[C@H]([C@@H](C)O)NC(=O)[C@H](CCSC)NC(=O)[C@@H](NC(=O)CN)CSSC[C@@H]2NC(=O)CNC(=O)[C@H](C)NC(=O)[C@H](CC(C)C)NC(=O)[C@@H]3CSSC[C@@H](C(=O)NCC(=O)O)NC(=O)[C@H](Cc4ccccc4)NC(=O)CNC(=O)[C@H](CC(N)=O)NC(=O)[C@@H]4CCCN4C(=O)CNC(=O)[C@H](CSSC[C@H](NC(=O)[C@H](CC(N)=O)NC1=O)C(=O)N[C@@H](CCCCN)C(=O)N[C@@H](CCC(N)=O)C(=O)N[C@@H](CC(=O)O)C(=O)N[C@@H](CO)C(=O)N[C@@H](CC(=O)O)C(=O)N3)NC(=O)[C@H](C(C)C)NC2=O [V-EET-3] (H-GCMTPWFPFTINCKQDSDCLAGCVCGPNGFCG-OH; disulfide 2-23, 13-25, 19-31)
Kd ([6]; Table S16, SPR against VEGF-A, averaged from at least three independent runs, estimated KD values due to possible non-specific binding, read-out: KD): > 1500 nM

CSCC[C@@H]1NC(=O)[C@H](CC(C)C)NC(=O)[C@H](CCCNC(=N)N)NC(=O)[C@H](CO)NC(=O)[C@@H]2CSSC[C@@H]3NC(=O)[C@H](CO)NC(=O)CNC(=O)[C@H]([C@@H](C)O)NC(=O)[C@H](CSSC[C@H](N)C(=O)N[C@@H](CCCCN)C(=O)NCC(=O)N[C@@H](CCCCN)C(=O)NCC(=O)N[C@@H](C)C(=O)N[C@@H](CCCCN)C(=O)N2)NC(=O)[C@H](CSSC[C@@H](C(=O)O)NC(=O)[C@H](CCCCN)NC(=O)CNC(=O)[C@H](CO)NC(=O)[C@H](CCCNC(=N)N)NC3=O)NC(=O)[C@H](CC(=O)O)NC(=O)[C@H](Cc2ccc(O)cc2)NC1=O [W T CON, reference compound]
Kd [1]: > 20000 nM
